Assay results published in ChEMBL document CHEMBL4002569, “Improved anticancer and antiparasitic activity of new lawsone Mannich bases” (Eur J Med Chem, 2017).
Active and inactive are the calls of the source. The calls are words filed in the database; no cut-off is given here.

Legend:
[1] = test system: PC-3; assay: Antiproliferative activity against human PC3 cells at >10 to 25 uM after 96 hrs by MTT assay; format: functional, cell-based
[2] = test system: MDA-MB-231; assay: Antiproliferative activity against human MDA-MB-231 cells at >10 to 25 uM after 96 hrs by MTT assay; format: functional, cell-based
[3] = test system: BXPC-3; assay: Antiproliferative activity against human BxPC3 cells at >10 to 25 uM after 96 hrs by MTT assay; format: functional, cell-based
[4] = test system: BXPC-3; assay: Antiproliferative activity against human BxPC3 cells at <10 uM after 96 hrs by MTT assay; format: functional, cell-based
[5] = test system: PC-3; assay: Antiproliferative activity against human PC3 cells at <10 uM after 96 hrs by MTT assay; format: functional, cell-based
[6] = test system: MDA-MB-231; assay: Antiproliferative activity against human MDA-MB-231 cells at <10 uM after 96 hrs by MTT assay; format: functional, cell-based
[7] = test system: BXPC-3; assay: Antiproliferative activity against human BxPC3 cells at <25 uM after 96 hrs by MTT assay; format: functional, cell-based
[8] = test system: MDA-MB-231; assay: Antiproliferative activity against human MDA-MB-231 cells at <25 uM after 96 hrs by MTT assay; format: functional, cell-based
[9] = test system: PC-3; assay: Antiproliferative activity against human PC3 cells at <25 uM after 96 hrs by MTT assay; format: functional, cell-based
[10] = test system: Trypanosoma brucei brucei; assay: Antitrypanosomal activity against bloodstream trypomastigote form of Trypanosoma brucei brucei 65.3 […] after 72 hrs by Alamar Blue assay; format: functional, cell-based; settings: Trypanosoma brucei, 65.3, 72 h
[11] = test system: KB-V1; assay: Antiproliferative activity against vinblastine-resistant human KBV1 cells after 72 hrs by MTT assay; format: functional, cell-based; settings: KB-V1, 72 h
[12] = test system: Trypanosoma brucei brucei; assay: Antitrypanosomal activity against bloodstream trypomastigote form of Trypanosoma brucei brucei 65.3 assessed as deformation of microtubule cytoskeleton at 10 uM after 3 to 6 hrs by DAPI staining-based fluorescence microscopic method; format: functional
[13] = test system: PANC-1; assay: Antiproliferative activity against human PANC1 cells after 72 hrs by MTT assay; format: functional, cell-based; settings: PANC-1, 72 h
[14] = test system: 518A2; assay: Induction of reactive oxygen species generation in human 518A2 cells at 0.5 uM after 24 hrs by NBT assay relative to control; format: functional
[15] = test system: 518A2; assay: Antiproliferative activity against human 518A2 cells after 72 hrs by MTT assay; format: functional, cell-based; settings: 518A2, 72 h
[16] = test system: 518A2; assay: Induction of reactive oxygen species generation in human 518A2 cells at 0.1 uM after 24 hrs by NBT assay relative to control; format: functional
[17] = test system: HCT-116; assay: Antiproliferative activity against human HCT116 cells after 72 hrs by MTT assay; format: functional, cell-based; settings: HCT-116, 72 h

SMILES	growth inhibition (GI) [1]	growth inhibition (GI) [2]	growth inhibition (GI) [3]	growth inhibition (GI) [4]	growth inhibition (GI) [5]	growth inhibition (GI) [6]	IC50 [11]	IC50 [13]	IC50 [15]	IC50 [17]	further results
CCCCCCCNC(C1=C(O)C(=O)c2ccccc2C1=O)c1ccc(F)c(F)c1 (centres undefined)	Active	Active	Active	inactive	inactive	inactive	–	–	–	–	–
CCCCCCCCCCCCNC(C1=C(O)C(=O)c2ccccc2C1=O)c1ccc(F)c(F)c1 (centres undefined)	Active	Active	Active	inactive	inactive	inactive	–	–	–	–	–
COc1cc(C(NCc2ccccc2)C2=C(O)C(=O)c3ccccc3C2=O)ccc1O (centres undefined)	–	–	–	–	–	–	–	–	–	–	growth inhibition (GI) [7]: inactive; growth inhibition (GI) [8]: inactive; growth inhibition (GI) [9]: inactive
O=C1C(O)=C(C(NCc2ccccn2)c2ccc(F)c(F)c2)C(=O)c2ccccc21 (centres undefined)	Active	Active	Active	inactive	inactive	inactive	–	–	–	–	–
N=C(N)c1ccc(OCCCCCOc2ccc(C(=N)N)cc2)cc1 [PENTAMIDINE]	–	–	–	–	–	–	–	–	–	–	IC50 [10]: 5 nM
CCCCCCCCCCCCCCNC(C1=C(O)C(=O)c2ccccc2C1=O)c1ccc(F)c(F)c1 (centres undefined)	Active	Active	Active	inactive	inactive	inactive	–	–	–	–	–
CCCCCCCNC(C1=C(O)C(=O)c2ccccc2C1=O)c1ccccn1 (centres undefined)	–	–	–	–	–	–	410 nM	6.41 µM	2.58 µM	6.39 µM	Activity [12]: inactive; IC50 [10]: 3730 nM; Activity [14]: 70%; Activity [16]: 50%
O=C1C(O)=C(C(NCc2ccccn2)c2ccccn2)C(=O)c2ccccc21 (centres undefined)	–	–	–	–	–	–	8610 nM	17.6 µM	6.98 µM	6.77 µM	–
O=C1C(O)=C(C(NCc2ccc(F)c(F)c2)c2ccccn2)C(=O)c2ccccc21 (centres undefined)	–	–	–	–	–	–	1560 nM	7.72 µM	3.05 µM	5.68 µM	–
